Source: patent publication US20190343801A1, “COMPOSITIONS AND METHODS FOR CONTROLLING NATURAL KILLER CELL ACTIVATION AND FUNCTION” (BAR ILAN UNIVERSITY, priority 2017, published 2019)
Structures can show the parent of a compound that is named as a salt.

Legend:
Type in all cases: cell-based
[1] = tested on: F-actin retrograde flow in YTS and pNK F-tractin GFP cells; test: Live cell imaging and kymograph analysis of F-actin retrograde flow (ARF) in F-tractin GFP NK cells; settings: 25 μM Y-27, activating vs. inhibitory NKIS
Source text: FIGS. […] In FIG. 5A, YTS F-tractin GFP cells were dropped over coverslips coated with anti-CD28 or anti-KIR1 antibodies, and imaged at 1 frame/sec through a single focal plane. […] Representative images are shown. Kymographs of F-actin dynamics were compiled along the contact site radius. […]
The y axis represents F-actin velocity (μm/sec), and the x axis—time from initial spreading (sec).
FIGS. 5E-5H. show analyses of NKIS area and ARF in the activating vs. inhibitory NKIS in the presence of Y-27632 (Y-27) inhibitor of myosin light chain (MLC) phosphorylation and/or JAS. […] NKIS area was determined using ImageJ. […]
Analyses of actin and SHP-1 dynamics were performed by preparing kymographs from live cell videos and tracing the movement of the fluorescently tagged proteins. […] Velocity over distance from the center was determined by calculating the velocity of the tracked protein based on the distance traversed to time between each two points on the trace, and noting the relative location from the center of the measured area. […] For each bin, average velocity and standard error were calculated. Average distance traversed over time was calculated by measuring the location of the trace, relative to its point of origin at each time point after the beginning of the trace. For each relative time point from the beginning of a trace, an average distance and standard error were calculated. […]

[2] = tested on: myosin light chain (MLC) phosphorylation on Serine 19; test: Immunoblot of myosin light chain phosphorylation with anti-pMLC (Ser19); settings: 25 μM Y-27 for 15 min
Description: YTS-2DL1 cells were treated with 25 μM of Y-27 for 15 min at 37° C., or left untreated. Cells were incubated at 37° C. with […] target cells for 5 min, 1 μM of JAS was added, and cells were incubated for 5 min. Cell lysates were analyzed by IB for phosphorylation of myosin light chain using anti-pMLC (Ser19) antibodies.
For analysis of whole cell lysates, 1-10×10^5 cells were used, and for IP experiments, 10-15×10^6 cells were used. Protein A/G plus-Agarose beads (Santa Cruz Biotechnology) were used for IP. Protein samples were resolved with sodium dodecyl sulfate-polyacrylamide gel electrophoresis (SDS-PAGE), transferred to nitrocellulose membrane, and immunoblotted with the appropriate primary antibodies. Immunoreactive proteins were detected with either anti-mouse or anti-rabbit horseradish peroxidase-coupled secondary antibody followed by detection by enhanced chemiluminescence (PerkinElmer).

SHP-1 = test: PTP assay: SHP-1 catalytic activity (pNPP hydrolysis) after treatment of NK-target cell conjugates; settings: inhibited NK cells (YTS-2DL1 + 221-Cw4), untreated 100±2.8%; 1 μM JAS, 25 μM Y-27
Description: YTS-2DL1 cells were pretreated with 25 μM Y-27 or left untreated. Cells were incubated at 37° C. with target cells for 5 min, 1 μM of JAS was added, and samples were incubated for 5 minutes before lysis. IP of SHP-1 was performed, and precipitates were incubated with pNpp. SHP-1 activity was determined by measuring absorbance at 405 nm. The graph represents rates of SHP-1 catalytic activity from three independent experiments.
In FIG. 8E, YTS-2DL1 cells were incubated at 37° C. with 221-Cw4 or Cw7 cells for 5 min, treated with 0.5 μM of CytD or left untreated, and SHP-1 activity was determined as detailed in the Materials and Methods. Graph summarizing percent of relative SHP-1 catalytic activity obtained by four independent experiments. Data are means±SEM.
SHP-1 catalytic activity was determined by measuring the hydrolysis of the exogenous substrate p-Nitrophenyl Phosphate (pNPP) by SHP-1, as previously described. NK cells (2-5×10^6) were incubated with target cells at ratio of 1:1, activated as described above, and lysed with passive ice-cold lysis buffer (1% Brij, 1% n-Octyl-b-D-glucoside, 50 mM Tris-HCl, pH 7.4, 150 mM NaCl, 5 mM ethylenediaminetetraacetic acid, and complete protease inhibitor tablets). Cell lysates were subjected to IP with anti-SHP-1 antibody. […] Reactions were terminated by adding 800 μl 1M NaOH, and SHP-1 activity was determined by measuring absorbance at 405 nm.

For `C[C@@H](N)C1CCC(C(=O)Nc2ccncc2)CC1` (stereo partly drawn) [Formula Y-27, 4-[(1R)-1-aminoethyl]-N N-4-pyridinyl-trans-cyclohexanecarboxamide, dihydrochloride], the F-actin flow [1] was “complete arrest of F-actin flow”, the “MLC phosphorylation (pMLC S19)” value [2] was “significant reduction in phosphorylation” and the SHP-1 catalytic activity (SHP-1) was 66.4±1.1%.
